Laboratory results published in patent publication US8466289B2, “Heterocyclic sulfonamide derivatives” (Novartis AG, priority 2009, dated 2013).

Experiments:
A375 cells = assay: cell viability assay in A375 cells using XTT; format: cell-based; details: Homo sapiens, A-375, 72 h, XTT read three days after compound addition
Protocol: The cell viability assay in A375 cells is set up in a 96-well plate format using XTT.
XTT is a yellow tetrazolium salt that is cleaved to an orange formazan dye by the mitochondria of metabolically active cells. The procedure allows for rapid determination in a microtitre plate, to give reproducible and sensitive results.
A375 cells are grown in DMEM media containing 10% FBS and 1 mM sodium pyruvate. Cells are trypsinized and seeded at 1000 cells/well. After allowing the cells to adhere overnight, compound is added to the wells at the following final concentrations: 10, 3, 1, 0.3, 0.1, 0.03, 0.01, 0.001, and 0.0001 μM. The assay is set up in triplicates for each concentration. DMSO concentrations are kept at 0.5%/well. Three days after compound addition, the XTT assay is performed. Wells are washed once with PBS. 100 μL of DMEM media without phenol red or FBS is added to each well. A working solution of XTT containing 1 mg/ml XTT and 100 μL of PMS (stock concentration 0.383 mg/ml) per 5 ml is prepared. 50 μL of the working solution of XTT is added to each well. Absorbance of the plate is read at 465 nm using a Spectramax 190 (Molecular Devices). The absorbance from wells with media and XTT alone, but without cells is considered the blank and subtracted from readings from all wells.
Percentage viability is calculated considering the blank subtracted value from wells treated with DMSO alone as 100% viable. GI50 values are calculated using Graphpad Prism, using non-linear regression curve fit for sigmoidal dose response (variable slope).
The cell viability assay is further described in Scudiero, et. al., Cancer Research (1988) 48, 4827-4833; Weislow, et. al., J. Natl. Cancer Institute, (1989) 81, 577-586; and Roehm, et. al., J. Immunol. Methods [1991]142:257-265.
(§1) The compounds of the above Examples were evaluated as inhibitors of the MAP kinase pathway in a BRAF-MEK-ERK enzymatic cascade assay and in the cell viability assay described above.

[1] = tested on: BRAF-MEK-ERK cascade (activated BRAF (V599E), unactive MEK1, unactive MAP Kinase 2/ERK2); assay: BRAF-MEK-ERK enzymatic cascade assay (TR-FRET); format: biochemical, human; details: compounds screened at 10 μM, 45 minutes pre-incubation with enzymes, 100 μM ATP
Excerpt: A BRAF-MEK-ERK cascade assay is used to evaluate the effects of the compounds as inhibitors of the MAP kinase pathway. An enzymatic cascade assay is set up using recombinant human activated BRAF (V599E) kinase (Cat No. 14-557), human full length unactive MEK1 kinase (Cat No. 14-706) and human full length unactive MAP Kinase 2/ERK2 (Cat No. 14-536) enzymes procured from Upstate. TR-FRET (Time resolved fluorescence resonance energy transfer) detection technology is used for the read out. The assay buffer solution contains 50 mM Tris pH 7.5, 10 mM MgCl2, 1 mM DTT, 0.01% Tween 20, 0.1 nM activated BRAF, 2 nM unactive MEK1, 10 nM unactive ERK2, 100 μM ATP and 500 nM long chain biotin-peptide substrate (LCB-FFKNIVTPRTPPP) in a 384 well format. The kinase reaction is stopped after 90 minutes with 10 mM EDTA and Lance detection mix (2 nM Eu-labeled phospho-serine/threonine antibody (Cat. No. AD0176-Perkin Elmer), 20 nM SA-APC (Cat No. CR130-100-Perkin Elmer) is added. The TR-FRET signal (Excitation at 340 nm, Emission at 615 nm and 665 nm) is read with 50 μs delay time on a Victor3 V fluorimeter. The data is calculated using the ratio of readings at 665 nm to 615 nm. The final concentration of DMSO is 2.5% in the assay. Compounds are screened at 10 μM concentration with pre-incubation of the enzymes in the presence of test compound for 45 minutes.
Each individual IC50 is determined using a 10 point dose response curve generated by GraphPad Prism software Version 4 (San Diego, Calif., USA) using non linear regression curve fit for sigmoidal dose response (variable slope).
These assays described above are fully detailed in Han, Shulin, et. al., Bioorganic & Medicinal Chemistry Letters (2005) 15, 5467-5473, and in Yeh, et. al., Clin Cancer Res (2007) 13 (5), 1576-1583.
as §1

SMILES	GI50 (A375 cells)	% inhibition [1]
Cc1c(Nc2ccc(I)cc2F)c(NS(=O)(=O)C2CC2CO)c2n(c1=O)CCS2 (stereo not drawn) [Example 21A, 2-Hydroxymethyl-cyclopropanesulfonic acid [7-(2-fluoro-4-iodo-phenylamino)-6-methyl-5-oxo-2,3-dihydro-5H-thiazolo[3,2-a]pyridin-8-yl]-amide]	158 nM	100%
Cc1c(Nc2ccc(I)cc2F)c(NS(=O)(=O)C2(CO)CC2)c2n(c1=O)CCS2 [Example 22A, 1-Hydroxymethyl-cyclopropanesulfonic acid [7-(2-fluoro-4-iodo-phenylamino)-6-methyl-5-oxo-2,3-dihydro-5H-thiazolo[3,2-a]pyridin-8-yl]-amide]	61 nM	97%
Cc1c(Nc2ccc(I)cc2F)c(NS(=O)(=O)N(C)C)c2n(c1=O)CCS2 [Example 23A, N-[7-(2-Fluoro-4-iodo-phenylamino)-6-methyl-5-oxo-2,3-dihydro-5H-thiazolo[3,2-a]pyridin-8-yl]-dimethylaminosulfonamide]	107 nM	100%

Other lines, results leading:

GI50 (A375 cells)	% inhibition [1]	SMILES
192 nM	100%	Cc1c(Nc2ccc(I)cc2F)c(NS(=O)(=O)C2CCCC2)c2n(c1=O)CCS2 [Example 24A, Cyclopentanesulfonic acid [7-(2-fluoro-4-iodo-phenylamino)-6-methyl-5-oxo-2,3-dihydro-5H-thiazolo[3,2-a]pyridin-8-yl]-amide]
922 nM	100%	Cc1c(Nc2ccc(I)cc2F)c(NS(=O)(=O)C2CC(O)C2)c2n(c1=O)CCS2 (stereo not drawn) [Example 25A, 3-Hydroxy-cyclobutanesulfonic acid [7-(2-fluoro-4-iodo-phenylamino)-6-methyl-5-oxo-2,3-dihydro-5H-thiazolo[3,2-a]pyridin-8-yl]-amide]
156 nM	100%	Cc1c(Nc2ccc(I)cc2F)c(NS(=O)(=O)C2CCC2)c2n(c1=O)CCS2 [Example 26A, Cyclobutanesulfonic acid [7-(2-fluoro-4-iodo-phenylamino)-6-methyl-5-oxo-2,3-dihydro-5H-thiazolo[3,2-a]pyridin-8-yl]-amide]
